The values below come from patent publication US11040952B2, “Phthalazinone compound, method for preparation thereof, pharmaceutical composition thereof, and use thereof” (SHANGHAI INSTITUTE OF MATERIA MEDICA, CHINESE ACADEMY OF …, priority 2017, dated 2021).

Data set [1] deals with HBV. Kind of data set: HBV DNA content in the supernatant of cell culture (real-time PCR). The format is cell-based, hepatitis B virus (HBV). To be noted: Hepatitis B virus, HepG2.2.15, 192 h, inhibition of HBV DNA replication, HepG2.2.15 supernatant, 8 days. Summed up: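 HepG2.2.15 cells stably carrying full-length HBV exposed to compounds for 8 days in DMEM with 10% FBS, medium renewed on day 4. Supernatant virion HBV DNA extracted and quantified by real-time PCR against a 1e^7-1e^4 IU/ml standard curve; IC50 calculated.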

The nature of data set [2]: MTT assay for cytotoxicity. Format: cell-based, Human. To be noted: human, HepG2.2.15 cells, half (50%) lethal concentration. Summed up: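 HBV-transfected HepG2.2.15 cells were cultured with compound for 8 days at 37 °C in DMEM/10% FBS, with medium changed on day 4. Viability was read by MTT (4 h, then 12 h lysis, OD570) against control wells. CC50 is the concentration cutting viability by 50%.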

`CN(C)CCNc1nc(F)c(-c2nn(Cc3ccc(C#N)cc3)c(=O)c3ccccc23)cc1Cl` [IV-38] yielded an IC50 in data set [1] of 343 nM. This compound also displayed a 50% cytotoxic concentration (CC50) at 8 days in data set [2] of 9.76 µM.

For the compound `CN(C)CCCNc1ccc(-c2nn(Cc3ccc(C#N)cc3)c(=O)c3ccccc23)c(F)n1` [IV-39], 684 nM corresponded to half-maximal inhibition in data set [1] (IC50). The CC50 at 8 days in data set [2] was found to be 18.4 µM.

In the case of `CN(C)CCCCNc1ccc(-c2nn(Cc3ccc(C#N)cc3)c(=O)c3ccccc23)c(F)n1` [IV-40], half-maximal inhibition in data set [1] (IC50) required 660 nM. In data set [2], this compound came in with a CC50 at 8 days of 18.6 µM.

Take `CCOCCNc1ccc(-c2nn(Cc3ccc(C#N)cc3)c(=O)c3ccccc23)c(F)n1` [IV-41]: the half-maximal inhibitory concentration (IC50) in data set [1] amounted to 325 nM. Further, the CC50 at 8 days in data set [2] was greater than 100 µM.

For `CCOCCNc1nc(F)c(-c2nn(Cc3ccc(C#N)cc3)c(=O)c3ccccc23)cc1Cl` [IV-42], the midpoint of inhibition in data set [1], the IC50, lay at 292 nM. In data set [2], this compound gave a CC50 at 8 days of 29.8 µM.

With `CCOCCCNc1ccc(-c2nn(Cc3ccc(C#N)cc3)c(=O)c3ccccc23)c(F)n1` [IV-43], half-maximal inhibition in data set [1] (IC50) was put at 288 nM. In data set [2], this compound came in with a CC50 at 8 days of 89.8 µM.

As for `CCOCCCNc1nc(F)c(-c2nn(Cc3ccc(C#N)cc3)c(=O)c3ccccc23)cc1Cl` [IV-44], in data set [1], the 50% inhibitory concentration (IC50) was less than 97.7 nM. In addition, it took 54.8 µM to reach half-maximal cytotoxicity in data set [2] (CC50 at 8 days).

As for `CC(C)(C)OC(=O)NCCCCNc1ccc(-c2nn(Cc3ccc(C#N)cc3)c(=O)c3ccccc23)c(F)n1` [IV-45], 368 nM corresponded to half-maximal inhibition in data set [1] (IC50). This compound registered a 50% cytotoxic concentration (CC50) at 8 days in data set [2] greater than 100 µM.

Turning to `CC(C)(C)OC(=O)NCCCCNc1nc(F)c(-c2nn(Cc3ccc(C#N)cc3)c(=O)c3ccccc23)cc1Cl` [IV-46], in data set [1], the IC50 worked out at 14 nM. In addition, in data set [2], the CC50 at 8 days is greater than 100 µM.

Take `CCNCCNc1ccc(-c2nn(Cc3ccc(C#N)cc3)c(=O)c3ccccc23)c(F)n1` [IV-47]: half-maximal inhibition in data set [1] (IC50) required 1720 nM. The compound also had a CC50 at 8 days in data set [2] of 13 µM.

`CCNCCNc1nc(F)c(-c2nn(Cc3ccc(C#N)cc3)c(=O)c3ccccc23)cc1Cl` [IV-48] showed a half-inhibitory concentration (IC50) in data set [1] of 516 nM. In data set [2], this compound registered a CC50 at 8 days of 7.38 µM.

On to `COCCOCCOCCNc1ccc(-c2nn(Cc3ccc(C#N)cc3)c(=O)c3ccccc23)c(F)n1` [IV-49], for which, in data set [1], the 50% inhibitory concentration (IC50) came to 166 nM. For the same compound, the CC50 at 8 days in data set [2] was 93.6 µM.

Consider `COCCOCCOCCNc1nc(F)c(-c2nn(Cc3ccc(C#N)cc3)c(=O)c3ccccc23)cc1Cl` [IV-50], for which, in data set [1], the IC50 was 9.65 nM. This compound yielded a 50% cytotoxic concentration (CC50) at 8 days in data set [2] greater than 100 µM.

In turn, `CC(C)(C)OC(=O)CCCNc1nc(F)c(-c2nn(Cc3ccc(C#N)cc3)c(=O)c3ccccc23)cc1Cl` [IV-51] yielded a half-inhibitory concentration (IC50) in data set [1] of 92 nM. In data set [2], the midpoint of cytotoxicity, the CC50 at 8 days, lay at 89.9 µM.

The compound `N#Cc1ccc(Cn2nc(-c3cc(Cl)c(NCCCC(=O)O)nc3F)c3ccccc3c2=O)cc1` [IV-52] displayed a half-maximal inhibitory concentration (IC50) in data set [1] of 84.5 nM. Also, the CC50 at 8 days in data set [2] is greater than 100 µM.

Regarding `CCNCCCNc1ccc(-c2nn(Cc3ccc(C#N)cc3)c(=O)c3ccccc23)c(F)n1` [IV-53], inhibition in data set [1] was half-maximal at 1070 nM (IC50). For the same compound, half-maximal cytotoxicity in data set [2] (CC50 at 8 days) was put at 18.1 µM.

With `CCNCCCNc1nc(F)c(-c2nn(Cc3ccc(C#N)cc3)c(=O)c3ccccc23)cc1Cl` [IV-54], the 50% inhibitory concentration (IC50) in data set [1] came to 470 nM. The compound also had a CC50 at 8 days in data set [2] of 8.55 µM.

In turn, `CCNCCCCNc1nc(F)c(-c2nn(Cc3ccc(C#N)cc3)c(=O)c3ccccc23)cc1Cl` [IV-55] gave an IC50 in data set [1] of 90 nM. Besides, the 50% cytotoxic concentration (CC50) at 8 days in data set [2] came to 2.56 µM.

Compound `CCOCCOCCNc1ccc(-c2nn(Cc3ccc(C#N)cc3)c(=O)c3ccccc23)c(F)n1` [IV-56] yielded an IC50 in data set [1] of 214 nM. This compound also came in with a cytotoxic concentration (CC50) at 8 days in data set [2] greater than 100 µM.

In the case of `CCOCCOCCNc1nc(F)c(-c2nn(Cc3ccc(C#N)cc3)c(=O)c3ccccc23)cc1Cl` [IV-57], the midpoint of inhibition in data set [1], the IC50, lay at 87.8 nM. In data set [2], this compound had a CC50 at 8 days of no less than 100 µM.

In turn, `CC(C)(C)OC(=O)COCCNc1ccc(-c2nn(Cc3ccc(C#N)cc3)c(=O)c3ccccc23)c(F)n1` [IV-58] registered an IC50 in data set [1] of 5300 nM. Besides, the CC50 at 8 days in data set [2] was greater than 100 µM.

In turn, `CC(C)(C)OC(=O)COCCNc1nc(F)c(-c2nn(Cc3ccc(C#N)cc3)c(=O)c3ccccc23)cc1Cl` [IV-59] registered an IC50 in data set [1] of 780 nM. In addition, in data set [2], the CC50 at 8 days is greater than 100 µM.

`N#Cc1ccc(Cn2nc(-c3cc(Cl)c(NCCOCC(=O)O)nc3F)c3ccccc3c2=O)cc1` [IV-60] returned a concentration for half-maximal inhibition (IC50) in data set [1] of 766 nM. The same compound showed a 50% cytotoxic concentration (CC50) at 8 days in data set [2] greater than 100 µM.

As to `CC(C)(C)OC(=O)CCNc1ccc(-c2nn(Cc3ccc(C#N)cc3)c(=O)c3ccccc23)c(F)n1` [IV-61], the half-inhibitory concentration (IC50) in data set [1] amounted to 465 nM. In addition, half-maximal cytotoxicity in data set [2] (CC50 at 8 days) was put at 195 µM.

On to `CC(C)(C)OC(=O)CCNc1nc(F)c(-c2nn(Cc3ccc(C#N)cc3)c(=O)c3ccccc23)cc1Cl` [IV-62], for which the IC50 in data set [1] is 444 nM. Moreover, in data set [2], the 50% cytotoxic concentration (CC50) at 8 days was greater than 100 µM.

Take `N#Cc1ccc(Cn2nc(-c3cc(Cl)c(NCCC(=O)O)nc3F)c3ccccc3c2=O)cc1` [IV-63]: the IC50 in data set [1] worked out at 262 nM. Moreover, the cytotoxic concentration (CC50) at 8 days in data set [2] was greater than 100 µM.

Consider `COC(=O)CCCNc1ccc(-c2nn(Cc3ccc(C#N)cc3)c(=O)c3ccccc23)c(F)n1` [IV-64], for which the IC50 in data set [1] stood at 1220 nM. In data set [2], the CC50 at 8 days was greater than 100 µM.

With `COC(=O)CCCNc1nc(F)c(-c2nn(Cc3ccc(C#N)cc3)c(=O)c3ccccc23)cc1Cl` [IV-65], the half-inhibitory concentration (IC50) in data set [1] worked out at 116 nM. The CC50 at 8 days in data set [2] is greater than 100 µM.

`N#Cc1ccc(Cn2nc(-c3ccc(NCCCO)nc3F)c3ccccc3c2=O)cc1` [IV-66] came in with a 50% inhibitory concentration (IC50) in data set [1] of 180 nM. In data set [2], this compound had a 50% cytotoxic concentration (CC50) at 8 days of 94 µM.

As for `N#Cc1ccc(Cn2nc(-c3cc(Cl)c(NCCCO)nc3F)c3ccccc3c2=O)cc1` [IV-67], the IC50 in data set [1] worked out at 4.2 nM. Besides, the cytotoxic concentration (CC50) at 8 days in data set [2] is greater than 100 µM.

The compound `N#Cc1ccc(Cn2nc(-c3ccc(NCCCCO)nc3F)c3ccccc3c2=O)cc1` [IV-68] yielded a half-maximal inhibitory concentration (IC50) in data set [1] of 332 nM. For the same compound, the half-maximal cytotoxic concentration (CC50) at 8 days in data set [2] was greater than 100 µM.

Compound `N#Cc1ccc(Cn2nc(-c3cc(Cl)c(NCCCCO)nc3F)c3ccccc3c2=O)cc1` [IV-69] registered a 50% inhibitory concentration (IC50) in data set [1] of 8.1 nM. The compound also gave a CC50 at 8 days in data set [2] of 25 µM.

In data set [1], `CCOC(=O)CCNc1ccc(-c2nn(Cc3ccc(C#N)cc3)c(=O)c3ccccc23)c(F)n1` [IV-70] registered an IC50 of 3320 nM. The same compound came in with a 50% cytotoxic concentration (CC50) at 8 days in data set [2] greater than 100 µM.

`CCOC(=O)CCNc1nc(F)c(-c2nn(Cc3ccc(C#N)cc3)c(=O)c3ccccc23)cc1Cl` [IV-71]: the half-inhibitory concentration (IC50) in data set [1] amounted to 2780 nM. Further, the cytotoxic concentration (CC50) at 8 days in data set [2] was greater than 100 µM.

In data set [1], `COC(=O)CCNc1ccc(-c2nn(Cc3ccc(C#N)cc3)c(=O)c3ccccc23)c(F)n1` [IV-72] gave an IC50 of 1720 nM. For the same compound, in data set [2], the CC50 at 8 days is greater than 100 µM.

Turning to `COC(=O)CCNc1nc(F)c(-c2nn(Cc3ccc(C#N)cc3)c(=O)c3ccccc23)cc1Cl` [IV-73], the IC50 in data set [1] was found to be 215 nM. The CC50 at 8 days in data set [2] was greater than 100 µM.

The compound `CS(=O)(=O)CCNc1ccc(-c2nn(Cc3ccc(C#N)cc3)c(=O)c3ccccc23)c(F)n1` [IV-74] came in with a half-inhibitory concentration (IC50) in data set [1] of 130 nM. In data set [2], this compound yielded a CC50 at 8 days greater than 100 µM.

In turn, `CS(=O)(=O)CCNc1nc(F)c(-c2nn(Cc3ccc(C#N)cc3)c(=O)c3ccccc23)cc1Cl` [IV-75] returned an IC50 in data set [1] of 36.6 nM. In data set [2], this compound had a CC50 at 8 days greater than 100 µM.

In data set [1], `N#Cc1ccc(Cn2nc(-c3ccc(NCCO)nc3F)c3ccccc3c2=O)cc1` [IV-76] registered an IC50 of 202 nM. Further, the CC50 at 8 days in data set [2] is greater than 100 µM.

Consider `N#Cc1ccc(Cn2nc(-c3cc(Cl)c(NCCO)nc3F)c3ccccc3c2=O)cc1` [IV-77], for which it took 27.7 nM to reach half-maximal inhibition in data set [1] (IC50). Besides, in data set [2], half-maximal cytotoxicity (CC50 at 8 days) was put at 32.1 µM.

With `CC1(C)OCC(CNc2ccc(-c3nn(Cc4ccc(C#N)cc4)c(=O)c4ccccc34)c(F)n2)O1` (stereo not shown) [IV-78], 341 nM corresponded to half-maximal inhibition in data set [1] (IC50). For the same compound, in data set [2], the CC50 at 8 days was greater than 100 µM.
